According to patent US8183373B2, “Solid state forms of sitagliptin salts” (Teva Pharmaceutical Industries Ltd., priority 2010, dated 2012):
Where a name gives a salt, the structure may show the parent alone.

Columns and labels:
Assay type in all cases: physicochemical
[1] = Solubility of Form S14 in aqueous media at 37° C.; conditions: for solubility: thermodynamic from solid, read-out: Concentration (solubility)
Method: (§1) Solubility was tested by addition of portions of […] solution to 25 mg of STG salt and stirring it at 37° C. for 1-2 minutes till dissolved. Form S14 was also found to be chemically and polymorphically stable.

[2] = Chemical and polymorphic storage stability of Form S14; conditions: six months at 25° C.
Method: as §1

[3] = Stability test in 0-100% relative humidity cells, 7 days, room temperature (XRPD and TGA); conditions: for Polymorphically stable up to (relative humidity): 7 days at room temperature; for Equilibrium amount of water: from TGA of the humidity test
Method: A sample of form S14 was equilibrated in 0-100% relative humidity cells for 7 days at room temperature. The samples were analyzed by XRPD and TGA. […] 10-15 mg samples were placed into 150 μL alumina crucibles and scanned between 25-250° C. at 10°/minute heating rate under 40 ml/minute N2 flow rate. For XRPD the ARL instrument was used. A sample of form S16 was equilibrated in 0-100% relative humidity cells for 7 days at room temperature. The samples were analyzed by XRPD and TGA. […] 10-15 mg samples were placed into 150 μL alumina crucibles and scanned between 25-250° C. at 10°/minute heating rate under 40 ml/minute N2 flow rate. For XRPD the ARL instrument was used.

[4] = Storage of a crystalline form under controlled relative humidity, form determined by powder XRD
Method: About 100 mg of Sitagliptin L-malate form I1 was put in an open yellow plastic cap, and kept at 100% relative humidity (RH) and room temperature for 6 days. It was then analyzed by powder XRD, and found to have transformed into form I2.
About 150 mg of Sitagliptin sulfate form S2 was put in an open Petri dish, and kept at 100±5% RH and room temperature for 12 days. It was then analyzed by powder XRD, and found to have transformed into form S9.
About 150 mg of Sitagliptin sulfate form S6 was put in an open Petri dish, and kept at 100±5% RH and room temperature for 12 days. It was then analyzed by powder XRD, and found to have transformed into form S9.
About 150 mg of Sitagliptin sulfate form S14 was stored under 80% RH at 25° C. for 7 days. The sample was then tested by XRPD and determined to be crystal form Si of Sitagliptin sulfate.
About 150 mg of Sitagliptin sulfate form S14 was stored under 100% RH at 25° C. for 7 days.
About 150 mg of Sitagliptin sulfate form S14 was stored under 70% RH at 25° C. for 7 days. The sample was then tested by XRPD and determined to be crystal form S1 of Sitagliptin sulfate.
About 150 mg of Sitagliptin sulfate form S14 was stored under 60% RH at 40° C. for 3 days. The sample was then tested by XRPD and determined to be crystal form S1 of Sitagliptin sulfate.

[5] = Water solubility of Form S16 (European Pharmacopoeia classification)
[6] = 0% RH, 7 days, room temperature
[7] = 20% RH, 7 days, room temperature
[8] = 40% RH, 7 days, room temperature
[9] = 60% RH, 7 days, room temperature
[10] = 80% RH, 7 days, room temperature
[11] = 100% RH, 7 days, room temperature

| Compound | Hygroscopicity [3] | % weight loss (TGA) [3, 6] | % weight loss (TGA) [3, 7] | % weight loss (TGA) [3, 8] | % weight loss (TGA) [3, 9] | % weight loss (TGA) [3, 10] | % weight loss (TGA) [3, 11] | Polymorphically stable up to (relative humidity) [3] | % weight loss (TGA) ([3]; Before the experiment) | Equilibrium amount of water [3] | also measured |
| --- | --- | --- | --- | --- | --- | --- | --- | --- | --- | --- | --- |
| N[C@@H](CC(=O)N1CCn2c(nnc2C(F)(F)F)C1)Cc1cc(F)c(F)cc1F [Form S14, Sitagliptin sulfate] | hygroscopic | 2.3% | 2.0% | 1.9% | 2.4% | 4.4% | 8.9% | up to 60 % RH | 3.4% | about 2% | solubility ([1]; aqueous medium, aqueous buffer, pH 4.5 37° C.): 500 mg/mL; solubility ([1]; aqueous medium, aqueous buffer, pH 6.8 37° C.): 330 mg/mL; solubility ([1]; aqueous medium, aqueous buffer, pH 7.8 37° C.): 300 mg/mL; solubility ([1]; aqueous medium, simulated gastric fluid, pH 1.2, 37° C.): 500 mg/mL; Solubility in different aqueous media ([1]; different aqueous media): highly soluble; solubility ([1]; Water 37° C.): 300 mg/mL; Chemical and polymorphic stability [2]: No degradation or polymorphic transformation; Form after storage (XRPD) ([4]; 80% RH at 25° C. for 7 days): Si; Form after storage (XRPD) ([4]; 100% RH at 25° C. for 7 days): polymorphic mixture of form S1 and form S11 |
| N[C@@H](CC(=O)N1CCn2c(nnc2C(F)(F)F)C1)Cc1cc(F)c(F)cc1F [Form S16, Sitagliptin sulfate] | low hygroscopicity | 2.9% | 2.9% | 2.9% | 2.9% | 4.4% | 8.9% | up to 60 % RH | 3.0% | about 2.9% | Constant water content ([3]; corresponds to the sesquihydrate): 2.9%; Solubility classification ([5]; classification of the European Pharmacopoeia Commission 01/2008:5110): freely soluble; solubility ([5]; in 1 mL of water, read-out: Amount soluble in 1 mL of water): ≥ 100 mg/mL |
